Laboratory results from ChEMBL document CHEMBL4038322, “Interactions between β2-Adrenoceptor Ligands and Membrane: Atomic-Level Insights from Magic-Angle Spinning NMR” (J Med Chem, 2017).
Activity calls are given as the source filed them. The calls are words filed in the database; no cut-off is given here.

Tests used:
Lipid bilayer [1] = test: Binding affinity to POPC liposome membrane assessed as 31P chemical shift anisotropy at compound to POPC molar ratio of 1:10 by NMR analysis (reference value: 28.9 ppm)
Lipid bilayer [2] = test: Binding affinity to POPC liposome membrane assessed as cross-relaxation rate of E proton with C-3/C-2 region of lipid at compound to POPC molar ratio of 1:10 by NOESY 1H NMR analysis
Lipid bilayer [3] = test: Binding affinity to POPC liposome membrane in liquid disorder phase assessed as change in cross-relaxation rate of hydrophilic group B protons with G-1 segment at compound to POPC molar ratio of 1:10 to 1:5 by 1D 1H […] analysis
Lipid bilayer [4] = test: Binding affinity to POPC liposome membrane in liquid disorder phase assessed as change in cross-relaxation rate of hydrophilic group B protons with G-3 segment at compound to POPC molar ratio of 1:10 to 1:5 by 1D 1H […] analysis
[5] = n-octanol/PBS/sodium carbonate partition coefficient, log P of the compound after 4 hrs; type: physicochemical
[6] = Lipophilicity of the compound assessed as capacity factor (CHI IAM7.4) at pH 7.4 by chromatographic analysis; type: physicochemical; conditions: buffer
Lipid bilayer [7] = test: Binding affinity to POPC liposome membrane assessed as cross-relaxation rate of F proton with C-3/C-2 region of lipid at compound to POPC molar ratio of 1:10 by NOESY 1H NMR analysis
Lipid bilayer [8] = test: Binding affinity to POPC liposome membrane at compound to POPC molar ratio of 1:10 after 300 milliseconds by NOESY 1H NMR analysis
Lipid bilayer [9] = test: Binding affinity to POPC liposome membrane assessed as cross-relaxation rate of H proton with C-3/C-2 region of lipid at compound to POPC molar ratio of 1:10 by NOESY 1H NMR analysis
Lipid bilayer [10] = test: Binding affinity to POPC liposome membrane assessed as 31P chemical shift anisotropy at compound to POPC molar ratio of 1:10 in presence of Mn2+ by NMR analysis
Lipid bilayer [11] = test: Binding affinity to POPC liposome membrane in liquid disorder phase assessed as change in cross-relaxation rate of lypophilic group E protons with C2/C3 segment at compound to POPC molar ratio of 1:10 to 1:5 by 1D 1H […] analysis
Lipid bilayer [12] = test: Binding affinity to POPC liposome membrane at compound to POPC molar ratio of 1:10 after 3 milliseconds by 2D NOESY NMR analysis
Lipid bilayer [13] = test: Binding affinity to POPC liposome membrane in liquid disorder phase assessed as broadening of POPC signals at compound to POPC molar ratio of 1:5 by 1D 1H […] analysis
Lipid bilayer [14] = test: Binding affinity to POPC liposome membrane at compound to POPC molar ratio of 1:10 after 3 milliseconds in presence of Mn2+ by 2D NOESY NMR analysis
Lipid bilayer [15] = test: Binding affinity to POPC liposome membrane assessed as cross-relaxation rate of F protons with lipid acyl CH3 at compound to POPC molar ratio of 1:10 by NOESY 1H NMR analysis; parameters: scale not given: the % may be the effect or the level left
Lipid bilayer [16] = test: Binding affinity to POPC liposome membrane assessed as cross-relaxation rate of F protons with segment G-3 at compound to POPC molar ratio of 1:10 by NOESY 1H NMR analysis; parameters: scale not given: the % may be the effect or the level left
Lipid bilayer [17] = test: Binding affinity to POPC liposome membrane assessed as cross-relaxation rate of F protons with segment alpha at compound to POPC molar ratio of 1:10 by NOESY 1H NMR analysis; parameters: scale not given: the % may be the effect or the level left
Lipid bilayer [18] = test: Binding affinity to POPC liposome membrane assessed as cross-relaxation rate of F protons with segment beta at compound to POPC molar ratio of 1:10 by NOESY 1H NMR analysis; parameters: scale not given: the % may be the effect or the level left
Lipid bilayer [19] = test: Binding affinity to POPC liposome membrane assessed as cross-relaxation rate of F protons with segment gamma at compound to POPC molar ratio of 1:10 by NOESY 1H NMR analysis; parameters: scale not given: the % may be the effect or the level left
Lipid bilayer [20] = test: Binding affinity to POPC liposome membrane assessed as cross-relaxation rate of E protons with (CH2)n segment at compound to POPC molar ratio of 1:10 by NOESY 1H NMR analysis
Lipid bilayer [21] = test: Binding affinity to POPC liposome membrane assessed as cross-relaxation rate of E protons with CH2-C= segment at compound to POPC molar ratio of 1:10 by NOESY 1H NMR analysis
Lipid bilayer [22] = test: Binding affinity to POPC liposome membrane assessed as cross-relaxation rate of E protons with C2/C3 segment at compound to POPC molar ratio of 1:10 by NOESY 1H NMR analysis

O=c1ccc2c([C@@H](O)CNC3Cc4ccccc4C3)ccc(O)c2[nH]1
Activity (Lipid bilayer [1]): 32 to 33.6 ppm
Activity (Lipid bilayer [2]): Active
Activity (Lipid bilayer [3]): Active
Activity (Lipid bilayer [4]): Active
logP at 4 h [5]: 1.55
CHI [6]: 41.6

CCc1ccc(CC)c2c1CC(NC[C@H](O)c1ccc(O)c3[nH]c(=O)ccc13)C2
Activity (Lipid bilayer [1]): 32 to 33.6 ppm
logP at 4 h [5]: 3.03
CHI [6]: 58.9
Activity (Lipid bilayer [7]): Active

COc1ccc(CC(C)NCC(O)c2ccc(O)c(NC=O)c2)cc1 (stereo not drawn)
Activity (Lipid bilayer [1]): 32 to 33.6 ppm
Activity (Lipid bilayer [8]): Active
Activity (Lipid bilayer [9]): Active

CCc1cc2c(cc1CC)CC(NC[C@H](O)c1ccc(O)c3[nH]c(=O)ccc13)C2 [INDACATEROL]
Activity (Lipid bilayer [1]): 32 to 33.6 ppm
Activity (Lipid bilayer [10]): Active
Activity (Lipid bilayer [2]): Active
Activity (Lipid bilayer [3]): Active
Activity (Lipid bilayer [4]): Active
Activity (Lipid bilayer [11]): Active
logP at 4 h [5]: 3.05
Activity (Lipid bilayer [12]): Active
CHI [6]: 62.5
Activity (Lipid bilayer [13]): 20 to 40%
Activity (Lipid bilayer [14]): Active

OCc1cc(C(O)CNCCCCCCOCCCCc2ccccc2)ccc1O (stereo not drawn) [SALMETEROL]
Activity (Lipid bilayer [1]): 32 to 33.6 ppm
Activity (Lipid bilayer [2]): < 0.0025 s⁻¹
Activity (Lipid bilayer [15]): 58%
Activity (Lipid bilayer [16]): 49%
Activity (Lipid bilayer [17]): 69%
Activity (Lipid bilayer [18]): 26%
Activity (Lipid bilayer [19]): 43%
Activity (Lipid bilayer [3]): Active
Activity (Lipid bilayer [4]): Active
logP at 4 h [5]: 3.08
CHI [6]: 56.7
Activity (Lipid bilayer [20]): Active
Activity (Lipid bilayer [21]): Active
Activity (Lipid bilayer [22]): Active
